Reference: a compilation of properties of binary mixtures (doi:10.1016/j.jct.2020.106330)

Test: xn = mol fraction of the nth substance listed
Conditions: 101.3 kPa

CN1CCCC1=O + CCCC[n+]1ccn(C)c1.F[P-](F)(F)(F)(F)F
speed of sound (308.15 K, x2 = 0): 1505 m/s
speed of sound (313.15 K, x2 = 0): 1485.7 m/s
speed of sound (318.15 K, x2 = 0): 1466.7 m/s
speed of sound (323.15 K, x2 = 0): 1447.8 m/s

CCCC[n+]1ccn(C)c1.F[P-](F)(F)(F)(F)F + CN1CCCC1=O
speed of sound (303.15 K, x1 = 0.0513): 1522.2 m/s
speed of sound (303.15 K, x1 = 0.1028): 1516.1 m/s
speed of sound (303.15 K, x1 = 0.1422): 1510 m/s
speed of sound (303.15 K, x1 = 0.499): 1460.7 m/s
speed of sound (303.15 K, x1 = 0.812): 1437.9 m/s
speed of sound (303.15 K, x1 = 0.8415): 1436.6 m/s
speed of sound (303.15 K, x1 = 0.8812): 1434.9 m/s
speed of sound (303.15 K, x1 = 0.9423): 1432.9 m/s
speed of sound (308.15 K, x1 = 0.0513): 1503.9 m/s
speed of sound (308.15 K, x1 = 0.1028): 1498.8 m/s
speed of sound (308.15 K, x1 = 0.1422): 1493.2 m/s
speed of sound (308.15 K, x1 = 0.1894): 1486 m/s
speed of sound (308.15 K, x1 = 0.2988): 1470.9 m/s
speed of sound (308.15 K, x1 = 0.499): 1447.2 m/s
speed of sound (308.15 K, x1 = 0.591): 1438.8 m/s
speed of sound (308.15 K, x1 = 0.812): 1425.8 m/s
speed of sound (308.15 K, x1 = 0.8415): 1424.5 m/s
speed of sound (308.15 K, x1 = 0.9423): 1421.1 m/s
speed of sound (308.15 K, x1 = 1): 1419.8 m/s
speed of sound (313.15 K, x1 = 0.0513): 1485.8 m/s
speed of sound (313.15 K, x1 = 0.1028): 1481.6 m/s
speed of sound (313.15 K, x1 = 0.1422): 1476.6 m/s
speed of sound (313.15 K, x1 = 0.1894): 1470 m/s
speed of sound (313.15 K, x1 = 0.2988): 1456 m/s
speed of sound (313.15 K, x1 = 0.499): 1433.9 m/s
speed of sound (313.15 K, x1 = 0.591): 1425.9 m/s
speed of sound (313.15 K, x1 = 0.6991): 1419.4 m/s
speed of sound (313.15 K, x1 = 0.812): 1413.8 m/s
speed of sound (313.15 K, x1 = 0.8415): 1412.6 m/s
speed of sound (313.15 K, x1 = 0.8812): 1411.2 m/s
speed of sound (313.15 K, x1 = 1): 1408.2 m/s
speed of sound (318.15 K, x1 = 0.1028): 1464.5 m/s
speed of sound (318.15 K, x1 = 0.1422): 1460.1 m/s
speed of sound (318.15 K, x1 = 0.1894): 1454.1 m/s
speed of sound (318.15 K, x1 = 0.2988): 1441.3 m/s
speed of sound (318.15 K, x1 = 0.6991): 1407.1 m/s
speed of sound (318.15 K, x1 = 0.812): 1402 m/s
speed of sound (318.15 K, x1 = 0.8415): 1400.9 m/s
speed of sound (318.15 K, x1 = 0.8812): 1399.6 m/s
speed of sound (318.15 K, x1 = 0.9423): 1398 m/s
speed of sound (318.15 K, x1 = 1): 1396.8 m/s
speed of sound (323.15 K, x1 = 0.0513): 1450.1 m/s
speed of sound (323.15 K, x1 = 0.1028): 1447.6 m/s
speed of sound (323.15 K, x1 = 0.1422): 1443.8 m/s
speed of sound (323.15 K, x1 = 0.1894): 1438.4 m/s
speed of sound (323.15 K, x1 = 0.2988): 1426.7 m/s
speed of sound (323.15 K, x1 = 0.499): 1407.6 m/s
speed of sound (323.15 K, x1 = 0.591): 1400.6 m/s
speed of sound (323.15 K, x1 = 0.812): 1390.3 m/s
speed of sound (323.15 K, x1 = 0.8415): 1389.3 m/s
speed of sound (323.15 K, x1 = 0.8812): 1388.1 m/s
speed of sound (323.15 K, x1 = 1): 1385.6 m/s
